Test results reported in patent US10336792B2, “Antimicrobial peptide dendrimers” (priority 2014, dated 2019).
Values after ≈ are worked out from the molar mass of the structure shown. Positions of bridges follow the written chain, without caps; N, C: chain ends. Non-standard residues stand in square brackets, D forms with d. Residues, ends and D or L forms follow the SMILES beside them. Groups on a side chain read outwards from the residue. Chains are numbered I, II in the order given. *: point of attachment. LeuLys(Leu) = CC(C)C[C@H](N)C(=O)NCCCC[C@H](NC(=O)[C@@H](N)CC(C)C)C(=O)*; Dab = NCC[C@H](N)C(=O)O

Tested on: Pseudomonas aeruginosa (strain PA01)
Assay: microbe, parasite or virus in culture
Type: cell-based
Settings: strain
Method: Antimicrobial activity was assayed against Bacillus subtilis (strain BR151), Escherichia coli (strain DH5α) and Pseudomonas aeruginosa (strain PA01). Microdilution broth method was used to determine the minimal inhibitory concentration (MIC). A colony of bacteria was grown in LB-medium overnight at 37° C. The concentration was quantified by measuring absorbance at 600 nm and diluted to OD600=0.1 (1×10^8 CFU/mL). The samples were prepared as stock solutions of 1 mg mL^−1 in H2O and diluted serially by ⅔ in nutrient LB in a 96-well microtiterplate (Cornstar, polypropylene, untreated). The sample solutions (50 μL) were mixed with the diluted bacterial suspension with an OD600 nm of 0.001 (50 μL). […] The plates were incubated at 37° C. until satisfactory growth (18-24 h). For each test, two columns of the plate were kept for sterility control (SC, broth only) and growth control (GC, broth with bacterial inoculums, no antibiotics). 10 μL of a solution of MTT (0.1% in H2O) was added to each well. The minimal inhibitory concentration (MIC) was defined as the lowest concentration of the antimicrobial substance (peptide dendrimer) that inhibited visible growth of the tested bacteria (yellow) with the unaided eye. For microbiological study the linear peptide LysTyrLysLysAlaLeuLysLysLeuAlaLysLeuLeu (SEQ ID No. 1) was used as reference.
All peptides were tested for their activity against P. aeruginosa PAO1 in a broth dilution assay (Wiegand, I. et al., 2008, Nat. Protoc., 3, 163-75; Clinical and Laboratory Standards Institute document M7-A7 7th Edition) to determine the MIC (minimal inhibitory concentration) values. The stock solutions of the peptide dendrimers were diluted serially by ⅔ in nutrient LB in 96-well microtiter plates. Bacteria were grown in nutrient LB overnight at 37° C. After dilution the bacteria were added to the peptides and incubated overnight (18-24 h) at 37° C. […] The position of the amino acids between the branching units seems to be optimal if the hydrophobic amino acid is the first counting from C-terminus and the charged one is on the second position. Introducing Ala as additional hydrophobic amino acid reduces activity (MSt-120). […] Also assembling charged or hydrophobic sections between the branching units leads to loss of activity whereas altering L-amino acids to D-amino acids maintains activity leading to the hypothesis that the mechanism of action should not be receptor mediated.

| MIC P. aeruginosa PAO1 [µg/mL] | Compound |
| --- | --- |
| 12 (≈ 4.47 µM) | CC(C)C[C@H](NC(=O)[C@H](CCCCNC(=O)[C@H](CCCCN)NC(=O)[C@H](CCCCNC(=O)[C@@H](N)CC(C)C)NC(=O)[C@@H](N)CC(C)C)NC(=O)[C@H](CCCCN)NC(=O)[C@H](CCCCNC(=O)[C@@H](N)CC(C)C)NC(=O)[C@@H](N)CC(C)C)C(=O)NCCCC[C@H](NC(=O)[C@H](CC(C)C)NC(=O)[C@H](CCCCNC(=O)[C@H](CCCCN)NC(=O)[C@H](CCCCNC(=O)[C@@H](N)CC(C)C)NC(=O)[C@@H](N)CC(C)C)NC(=O)[C@H](CCCCN)NC(=O)[C@H](CCCCNC(=O)[C@@H](N)CC(C)C)NC(=O)[C@@H](N)CC(C)C)C(=O)N[C@@H](CCCCN)C(N)=O [MSt-147, (L)8(KK)4(KL)2(KK)] (I: H-LK(Leu)KK([Lys-LeuLys(Leu)])LKK-NH2 / II: H-LK(Leu)KK([Lys-LeuLys(Leu)])L; amide I:6-II:C) |
| 5 (≈ 2.64 µM) | CC(C)C[C@H](NC(=O)[C@H](CCN)NC(=O)[C@H](CCCCNC(=O)[C@H](CC(C)C)NC(=O)[C@H](CCN)NC(=O)[C@H](CCCCNC(=O)[C@H](CC(C)C)NC(=O)[C@@H](N)CCN)NC(=O)[C@H](CC(C)C)NC(=O)[C@@H](N)CCN)NC(=O)[C@H](CC(C)C)NC(=O)[C@H](CCN)NC(=O)[C@H](CCCCNC(=O)[C@H](CC(C)C)NC(=O)[C@@H](N)CCN)NC(=O)[C@H](CC(C)C)NC(=O)[C@@H](N)CCN)C(N)=O [MSt-201, (DabL)4(KDabL)2(KDabL)] (I: H-[Dab]LK([Leu-Dab])[Dab]LK[Dab]L-NH2 / II: H-[Dab]LK([Leu-Dab])[Dab]L; amide I:6-II:C; N-terminus assumed) |
| 2 (≈ 0.409 µM) | CC(C)C[C@H](NC(=O)[C@H](CCCCN)NC(=O)[C@H](CCCCN)NC(=O)[C@H](CCCCNC(=O)[C@H](CC(C)C)NC(=O)[C@H](CCCCN)NC(=O)[C@H](CC(C)C)NC(=O)[C@H](CCCCNC(=O)[C@H](CC(C)C)NC(=O)[C@H](CCCCN)NC(=O)[C@H](CCCCNC(=O)[C@H](CC(C)C)NC(=O)[C@@H](N)CCCCN)NC(=O)[C@H](CC(C)C)NC(=O)[C@@H](N)CCCCN)NC(=O)[C@H](CC(C)C)NC(=O)[C@H](CCCCN)NC(=O)[C@H](CCCCNC(=O)[C@H](CC(C)C)NC(=O)[C@@H](N)CCCCN)NC(=O)[C@H](CC(C)C)NC(=O)[C@@H](N)CCCCN)NC(=O)[C@H](CC(C)C)NC(=O)[C@H](CCCCN)NC(=O)[C@H](CC(C)C)NC(=O)[C@H](CCCCNC(=O)[C@H](CC(C)C)NC(=O)[C@H](CCCCN)NC(=O)[C@H](CCCCNC(=O)[C@H](CC(C)C)NC(=O)[C@@H](N)CCCCN)NC(=O)[C@H](CC(C)C)NC(=O)[C@@H](N)CCCCN)NC(=O)[C@H](CC(C)C)NC(=O)[C@H](CCCCN)NC(=O)[C@H](CCCCNC(=O)[C@H](CC(C)C)NC(=O)[C@@H](N)CCCCN)NC(=O)[C@H](CC(C)C)NC(=O)[C@@H](N)CCCCN)C(N)=O [YGO-008, (KL)8(KKL)4(KLKL)2(KKKL)] (I: H-KLK([Leu-Lys])KLKLKLKKKL-NH2 / II: H-KLK([Leu-Lys])KLKLKL / III: H-KLK([Leu-Lys])KL / IV: H-KLK([Leu-Lys])KL; amide I:6-IV:C, I:10-II:C, II:6-III:C) |

| Compound | MIC P. aeruginosa PAO1 [µg/mL] |
| --- | --- |
| CC(C)C[C@H](NC(=O)[C@H](CCCCN)NC(=O)[C@H](CCCCNC(=O)[C@H](CC(C)C)NC(=O)[C@H](CCCCN)NC(=O)[C@H](CCCCNC(=O)[C@H](CC(C)C)NC(=O)[C@@H](N)CCCCN)NC(=O)[C@H](CC(C)C)NC(=O)[C@@H](N)CCCCN)NC(=O)[C@H](CC(C)C)NC(=O)[C@H](CCCCN)NC(=O)[C@H](CCCCNC(=O)[C@H](CC(C)C)NC(=O)[C@@H](N)CCCCN)NC(=O)[C@H](CC(C)C)NC(=O)[C@@H](N)CCCCN)C(N)=O [MSt-146, (KL)4(KKL)2(KKL)] (I: H-KLK([Leu-Lys])KLKKL-NH2 / II: H-KLK([Leu-Lys])KL; amide I:6-II:C) | 7 (≈ 3.35 µM) |
